Values after ≈ are worked out from the molar mass of the structure shown.
Columns and labels:
Test in all cases: In vitro antibacterial evaluation: minimum inhibitory concentration (MIC), broth dilution method
Assay type in all cases: cell-based
Enterococcus sp. = settings: 18 hours at 35° C.
How it was run: (§1)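 Values are minimum inhibitory concentrations, meaning the smallest antibiotic concentration that stops growth of the organism. They come from broth dilution in Muller-Hinton II […] per NCCLS guidance (M7-A2), using 5×10^5 CFU/mL and concentrations from 64 to 0.06 μg/mL.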

Escherichia coli = settings: 18 hours at 35° C.
How it was run: as §1

Staphylococcus sp. = system: Staphylococcus sp.
How it was run: as §1

Streptococcus sp. = settings: 18 hours at 35° C.
How it was run: as §1

[1] = broth dilution, inoculum 5×10^5 CFU/mL

MIC Enterococcus avium (GC 4558) (Enterococcus sp.; Enterococcus avium (GC 4558)): 4 mg/L (≈ 2.83 µM)
MIC Enterococcus faecalis (ATCC 29212) (Enterococcus sp.; Enterococcus faecalis (ATCC 29212)): 8 mg/L (≈ 5.65 µM)
MIC Enterococcus faecalis (GC 2242) (Enterococcus sp.; Enterococcus faecalis (GC 2242)): 8 mg/L (≈ 5.65 µM)
MIC Enterococcus faecalis (GC 2691) (Enterococcus sp.; Enterococcus faecalis (GC 2691)): 8 mg/L (≈ 5.65 µM)
MIC Enterococcus faecalis (GC 3059) (Enterococcus sp.; Enterococcus faecalis (GC 3059)): 8 mg/L (≈ 5.65 µM)
MIC Enterococcus faecalis (GC 4552) (Enterococcus sp.; Enterococcus faecalis (GC 4552)): 8 mg/L (≈ 5.65 µM)
MIC Enterococcus faecalis (GC 4553) (Enterococcus sp.; Enterococcus faecalis (GC 4553)): 8 mg/L (≈ 5.65 µM)
MIC Enterococcus faecalis (GC 4554) (Enterococcus sp.; Enterococcus faecalis (GC 4554)): 8 mg/L (≈ 5.65 µM)
MIC Enterococcus faecalis (GC 6189) (Enterococcus sp.; Enterococcus faecalis (GC 6189)): 8 mg/L (≈ 5.65 µM)
MIC Enterococcus faecium (GC 2243) (Enterococcus sp.; Enterococcus faecium (GC 2243)): 8 mg/L (≈ 5.65 µM)
MIC Enterococcus faecium (GC 4556) (Enterococcus sp.; Enterococcus faecium (GC 4556)): 8 mg/L (≈ 5.65 µM)
MIC Enterococcus faecium (GC 4557) (Enterococcus sp.; Enterococcus faecium (GC 4557)): 4 mg/L (≈ 2.83 µM)
MIC Enterococcus avium (GC 4558) (Enterococcus sp.; [1]): 4 mg/L (≈ 2.83 µM)
MIC Enterococcus faecalis (ATCC 29212) (Enterococcus sp.; [1]): 8 mg/L (≈ 5.65 µM)
MIC Enterococcus faecalis (GC 2242) (Enterococcus sp.; [1]): 8 mg/L (≈ 5.65 µM)
MIC Enterococcus faecalis (GC 2691) (Enterococcus sp.; [1]): 8 mg/L (≈ 5.65 µM)
MIC Enterococcus faecalis (GC 3059) (Enterococcus sp.; [1]): 8 mg/L (≈ 5.65 µM)
MIC Enterococcus faecalis (GC 4552) (Enterococcus sp.; [1]): 8 mg/L (≈ 5.65 µM)
MIC Enterococcus faecalis (GC 4553) (Enterococcus sp.; [1]): 8 mg/L (≈ 5.65 µM)
MIC Enterococcus faecalis (GC 4554) (Enterococcus sp.; [1]): 8 mg/L (≈ 5.65 µM)
MIC Enterococcus faecalis (GC 6189) (Enterococcus sp.; [1]): 8 mg/L (≈ 5.65 µM)
MIC Enterococcus faecium (GC 2243) (Enterococcus sp.; [1]): 8 mg/L (≈ 5.65 µM)
MIC Enterococcus faecium (GC 4556) (Enterococcus sp.; [1]): 8 mg/L (≈ 5.65 µM)
MIC Enterococcus faecium (GC 4557) (Enterococcus sp.; [1]): 4 mg/L (≈ 2.83 µM)
MIC Escherichia coli (ATCC 25922) (Escherichia coli; Escherichia coli (ATCC 25922)): 32 mg/L (≈ 22.6 µM)
MIC Escherichia coli (GC 4559) (Escherichia coli; Escherichia coli (GC 4559)): 32 mg/L (≈ 22.6 µM)
MIC Escherichia coli (GC 4560) (Escherichia coli; Escherichia coli (GC 4560)): 2 mg/L (≈ 1.41 µM)
MIC Staphylococcus aureus (ATCC 29213) (Staphylococcus sp.; strain ATCC 29213): 2 mg/L (≈ 1.41 µM)
MIC Staphylococcus aureus (GC 1131) (Staphylococcus sp.; strain GC 1131): 4 mg/L (≈ 2.83 µM)
MIC Staphylococcus aureus (GC 3051) (Staphylococcus sp.; strain GC 3051): 2 mg/L (≈ 1.41 µM)
MIC Staphylococcus aureus (GC 3053) (Staphylococcus sp.; strain GC 3053): 4 mg/L (≈ 2.83 µM)
MIC Staphylococcus aureus (GC 4541) (Staphylococcus sp.; strain GC 4541): 2 mg/L (≈ 1.41 µM)
MIC Staphylococcus aureus (GC 4542) (Staphylococcus sp.; strain GC 4542): 2 mg/L (≈ 1.41 µM)
MIC Staphylococcus aureus-SMITH (GC 4543) (Staphylococcus sp.; strain GC 4543): 2 mg/L (≈ 1.41 µM)
MIC Staphylococcus aureus (GC 4544) (Staphylococcus sp.; strain GC 4544): 4 mg/L (≈ 2.83 µM)
MIC Staphylococcus aureus (GC 4545) (Staphylococcus sp.; strain GC 4545): 2 mg/L (≈ 1.41 µM)
MIC Coagulase Negative Staphylococcus (GC 4547) (Staphylococcus sp.; strain GC 4547): 2 mg/L (≈ 1.41 µM)
MIC Coagulase Negative Staphylococcus (GC 4548) (Staphylococcus sp.; strain GC 4548): 2 mg/L (≈ 1.41 µM)
MIC Coagulase Negative Staphylococcus (GC 4549) (Staphylococcus sp.; strain GC 4549): 2 mg/L (≈ 1.41 µM)
MIC Coagulase Negative Staphylococcus (GC 4551) (Staphylococcus sp.; strain GC 4551): 2 mg/L (≈ 1.41 µM)
MIC Coagulase Negative Staphylococcus (GC 6257) (Staphylococcus sp.; strain GC 6257): 1 mg/L (≈ 0.706 µM)
MIC Streptococcus agalactiae (GC 4564) (Streptococcus sp.; Streptococcus agalactiae (GC 4564)): 1 mg/L (≈ 0.706 µM)
MIC Streptococcus pneumoniae (ATCC 6301) (Streptococcus sp.; Streptococcus pneumoniae (ATCC 6301)): 0.5 mg/L (≈ 0.353 µM)
MIC Streptococcus pneumoniae (GC 1894) (Streptococcus sp.; Streptococcus pneumoniae (GC 1894)): <0.06 mg/L
MIC Streptococcus pneumoniae (GC 4565) (Streptococcus sp.; Streptococcus pneumoniae (GC 4565)): 0.25 mg/L (≈ 0.177 µM)
MIC Streptococcus pyogenes (GC 4563) (Streptococcus sp.; Streptococcus pyogenes (GC 4563)): 1 mg/L (≈ 0.706 µM)
MIC Streptococcus agalactiae (GC 4564) (Streptococcus sp.; [1]): 1 mg/L (≈ 0.706 µM)
MIC Streptococcus pneumoniae (ATCC 6301) (Streptococcus sp.; [1]): 0.5 mg/L (≈ 0.353 µM)
MIC Streptococcus pneumoniae (GC 1894) (Streptococcus sp.; [1]): <0.06 mg/L
MIC Streptococcus pneumoniae (GC 4565) (Streptococcus sp.; [1]): 0.25 mg/L (≈ 0.177 µM)
MIC Streptococcus pyogenes (GC 4563) (Streptococcus sp.; [1]): 1 mg/L (≈ 0.706 µM)
Structure (SMILES): CC(c1ccccc1)C1NC(=O)CNC(=O)C(CO)NC(=O)C(C(O)C2CNC(=N)N2C2OC(CO)C(O)C(O)C2O)NC(=O)C(C(O)C2CNC(=N)N2)NC(=O)C(Cc2ccc(OC3OC(CO)C(OC4OC5COC6(OC5C(O)C4O)C4CCCC6CCC4)C(O)C3O)cc2)NC1=O (stereo not drawn) [Example 212, Cyclo[glycyl-β-methylphenylalanyl-O-[4-O-(4,6-O-bicyclo[3.3.1]non-9-ylidenehexopyranosyl]hexopyranosyl]tyrosyl-3-(2-iminoimidazolidin-4-yl)seryl-3-(3-hexopyranosyl-2-iminoimidazolidin-4-yl)serylseryl]]
MIC Staphylococcus haemolyticus (GC 4546) (Staphylococcus sp.; strain GC 4546): 2 mg/L (≈ 1.41 µM)
